assay: log P determination by HPLC on reverse-phase column (EEC Directive 79/831 Annex V.A8); type: physicochemical
How it was run: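 Log P was derived from retention times by linear interpolation between successive unbranched alkan-2-one standards (C3–C16). The standards and samples ran on a C18 reverse-phase column at 43 °C with a 10→95% acetonitrile gradient in 0.1% formic acid (pH 2.7). The method follows EEC Directive 79/831 Annex V.A8.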

Row | Structure (SMILES) | logP
1 | Cc1cc(I)cc(C(=O)NC2CCC2)c1NC(=O)c1cc(Cn2nc(C(F)(F)F)nc2C(F)(F)F)nn1-c1ncccc1Cl [I-1-282] | 4.18
2 | CCNC(=O)c1cc(I)cc(C)c1NC(=O)c1cc(Cn2nc(C(F)(F)F)nc2C(F)(F)F)nn1-c1ncccc1Cl [I-1-283] | 3.89
3 | Cc1cc(I)cc(C(=O)NC(C)C2CC2)c1NC(=O)c1cc(Cn2nc(C(F)(F)F)nc2C(F)(F)F)nn1-c1ncccc1Cl (stereo not shown) [I-1-284] | 4.16
4 | Cc1cc(I)cc(C(=O)NC(C)(C)C)c1NC(=O)c1cc(Cn2nc(C(F)(F)F)nc2C(F)(F)F)nn1-c1ncccc1Cl [I-1-285] | 4.23
5 | Cc1cc(I)cc(C(=O)NC(C2CC2)C2CC2)c1NC(=O)c1cc(Cn2nc(C(F)(F)F)nc2C(F)(F)F)nn1-c1ncccc1Cl [I-1-286] | 4.52
6 | Cc1cc(I)cc(C(=O)NC(C)C2CC2)c1NC(=O)c1cc(Cn2cc(Cl)c(C(F)(F)C(F)(F)F)n2)nn1-c1ncccc1Cl (stereo not shown) [I-1-287] | 4.69
7 | Cc1cc(I)cc(C(=O)NC(C2CC2)C2CC2)c1NC(=O)c1cc(Cn2cc(Cl)c(C(F)(F)C(F)(F)F)n2)nn1-c1ncccc1Cl [I-1-288] | 4.79
8 | Cc1cc(I)cc(C(=O)NC(C)(C)C)c1NC(=O)c1cc(Cn2cc(Cl)c(C(F)(F)C(F)(F)F)n2)nn1-c1ncccc1Cl [I-1-289] | 4.63
9 | CNC(=O)c1cc(Cl)cc(Cl)c1NC(=O)c1cc(Cn2nc(C(F)(F)F)nc2C(F)(F)F)nn1-c1ncccc1Cl [I-1-290] | 3.40
10 | CC(C)NC(=O)c1cc(Cl)cc(Cl)c1NC(=O)c1cc(Cn2nc(C(F)(F)F)nc2C(F)(F)F)nn1-c1ncccc1Cl [I-1-291] | 3.76
11 | N#CCNC(=O)c1cc(Cl)cc(Cl)c1NC(=O)c1cc(Cn2nc(C(F)(F)F)nc2C(F)(F)F)nn1-c1ncccc1Cl [I-1-292] | 2.83
12 | O=C(NCC1CC1)c1cc(Cl)cc(Cl)c1NC(=O)c1cc(Cn2nc(C(F)(F)F)nc2C(F)(F)F)nn1-c1ncccc1Cl [I-1-293] | 3.22
13 | CC(C)NC(=O)c1cc(Cl)cc(Cl)c1NC(=O)c1cc(Cn2cc(C(F)(F)C(F)(F)F)c(C(F)(F)C(F)(F)F)n2)nn1-c1ncccc1Cl [I-1-294] | 4.00
14 | O=C(NC1CC1)c1cc(Cl)cc(Cl)c1NC(=O)c1cc(Cn2nc(C(F)(F)F)nc2C(F)(F)F)nn1-c1ncccc1Cl [I-1-295] | 2.95
15 | NC(=O)c1cc(Cl)cc(Cl)c1NC(=O)c1cc(Cn2cc(C(F)(F)C(F)(F)F)c(C(F)(F)C(F)(F)F)n2)nn1-c1ncccc1Cl [I-1-296] | 3.43
16 | CNC(=O)c1cc(Cl)cc(Cl)c1NC(=O)c1cc(Cn2cc(C(F)(F)C(F)(F)F)c(C(F)(F)C(F)(F)F)n2)nn1-c1ncccc1Cl [I-1-297] | 3.59
17 | NC(=O)c1cc(Cl)cc(Cl)c1NC(=O)c1cc(Cn2nc(C(F)(F)F)nc2C(F)(F)F)nn1-c1ncccc1Cl [I-1-298] | 2.61
18 | N#CCNC(=O)c1cc(Cl)cc(Cl)c1NC(=O)c1cc(Cn2cc(C(F)(F)C(F)(F)F)c(C(F)(F)C(F)(F)F)n2)nn1-c1ncccc1Cl [I-1-299] | 3.53
19 | O=C(NC1CC1)c1cc(Cl)cc(Cl)c1NC(=O)c1cc(Cn2nc(C(F)(F)F)cc2C(F)(F)F)nn1-c1ncccc1Cl [I-1-300] | 3.19
20 | CC(C)NC(=O)c1cc(Cl)cc(Cl)c1NC(=O)c1cc(Cc2ccoc2)nn1-c1ncccc1Cl [I-1-301] | 2.60
21 | NC(=O)c1cc(Cl)cc(Cl)c1NC(=O)c1cc(Cn2nc(C(F)(F)F)cc2C(F)(F)F)nn1-c1ncccc1Cl [I-1-302] | 2.80
22 | N#CCNC(=O)c1cc(Cl)cc(Cl)c1NC(=O)c1cc(Cn2nc(C(F)(F)F)cc2C(F)(F)F)nn1-c1ncccc1Cl [I-1-303] | 2.98

Row | Structure (SMILES) | logP
23 | CNC(=O)c1cc(Cl)cc(Cl)c1NC(=O)c1cc(Cn2nc(C(F)(F)F)cc2C(F)(F)F)nn1-c1ncccc1Cl [I-1-304] | 3.01
24 | CC(C)NC(=O)c1cc(Cl)cc(Cl)c1NC(=O)c1cc(Cn2nc(C(F)(F)F)cc2C(F)(F)F)nn1-c1ncccc1Cl [I-1-305] | 3.40
25 | CNC(=O)c1cc(Cl)cc(Cl)c1NC(=O)c1cc(Cc2ccoc2)nn1-c1ncccc1Cl [I-1-306] | 2.18
26 | NC(=O)c1cc(Cl)cc(Cl)c1NC(=O)c1cc(Cn2cc(Cl)c(C(F)(F)C(F)(F)F)n2)nn1-c1ncccc1Cl [I-1-307] | 2.95
27 | CNC(=O)c1cc(Cl)cc(Cl)c1NC(=O)c1cc(Cn2cc(Cl)c(C(F)(F)C(F)(F)F)n2)nn1-c1ncccc1Cl [I-1-308] | 3.18
28 | CC(C)NC(=O)c1cc(Cl)cc(Cl)c1NC(=O)c1cc(Cn2cc(Cl)c(C(F)(F)C(F)(F)F)n2)nn1-c1ncccc1Cl [I-1-309] | 3.53
29 | N#CCNC(=O)c1cc(Cl)cc(Cl)c1NC(=O)c1cc(Cn2cc(Cl)c(C(F)(F)C(F)(F)F)n2)nn1-c1ncccc1Cl [I-1-310] | 3.13
30 | NC(=O)c1cc(Cl)cc(Cl)c1NC(=O)c1cc(Cn2ccc(C(F)(F)F)n2)nn1-c1ncccc1Cl [I-1-311] | 2.21
31 | CNC(=O)c1cc(Cl)cc(Cl)c1NC(=O)c1cc(Cn2ccc(C(F)(F)F)n2)nn1-c1ncccc1Cl [I-1-312] | 2.37
32 | N#CCNC(=O)c1cc(Cl)cc(Cl)c1NC(=O)c1cc(Cn2ccc(C(F)(F)F)n2)nn1-c1ncccc1Cl [I-1-313] | 2.43
33 | CC(C)NC(=O)c1cc(Cl)cc(Cl)c1NC(=O)c1cc(Cn2ccc(C(F)(F)F)n2)nn1-c1ncccc1Cl [I-1-314] | 2.77
34 | O=C(NC1CC1)c1cc(Cl)cc(Cl)c1NC(=O)c1cc(Cn2ccc(C(F)(F)F)n2)nn1-c1ncccc1Cl [I-1-315] | 2.54
35 | CNC(=O)c1cc(Cl)cc(Cl)c1NC(=O)c1cc(Cc2cccnc2)nn1-c1ncccc1Cl [I-1-316] | 1.03
36 | CC(C)NC(=O)c1cc(Cl)cc(Cl)c1NC(=O)c1cc(Cc2cccnc2)nn1-c1ncccc1Cl [I-1-317] | 1.31
37 | CC(C)NC(=O)c1cc(Cl)cc(Cl)c1NC(=O)c1cc(Cc2cncnc2)nn1-c1ncccc1Cl [I-1-318] | 1.62
38 | NC(=O)c1cc(Cl)cc(Cl)c1NC(=O)c1cc(Cc2cncnc2)nn1-c1ncccc1Cl [I-1-319] | 2.02
39 | N#CCNC(=O)c1cc(Cl)cc(Cl)c1NC(=O)c1cc(Cc2cncnc2)nn1-c1ncccc1Cl [I-1-320] | 1.49
40 | CNC(=O)c1cc(Cl)cc(Cl)c1NC(=O)c1cc(Cc2cncnc2)nn1-c1ncccc1Cl [I-1-321] | 1.41
41 | CNC(=O)c1cc(Cl)cc(Cl)c1NC(=O)c1cc(Cc2c(C)noc2C)nn1-c1ncccc1Cl [I-1-322] | 1.94
42 | Cc1cc(Cl)cc(C(=O)NC(C)C)c1NC(=O)c1cc(Cn2cnc(C(F)(F)C(F)(F)F)n2)nn1-c1ncccc1Cl [I-1-323] | 3.01
43 | C[C@@H](C[S+](C)[O-])NC(=O)c1cc(Cl)cc(Cl)c1NC(=O)c1cc(Cn2cc(C(F)(F)C(F)(F)F)c(C(F)(F)C(F)(F)F)n2)nn1-c1ncccc1Cl (stereo partly shown) [I-1-325] | 3.54
44 | CNC(=O)c1cc(Cl)cc(Cl)c1NC(=O)c1cc(Cn2cnc(C(F)(F)C(F)(F)F)n2)nn1-c1ncccc1Cl [I-1-326] | 2.55

Row | Structure (SMILES) | logP
45 | CC(C)NC(=O)c1cc(Cl)cc(Cl)c1NC(=O)c1cc(Cn2cnc(C(F)(F)C(F)(F)F)n2)nn1-c1ncccc1Cl [I-1-327] | 2.97
46 | C[C@@H](CS(C)(=O)=O)NC(=O)c1cc(Cl)cc(Cl)c1NC(=O)c1cc(Cn2cc(C(F)(F)C(F)(F)F)c(C(F)(F)C(F)(F)F)n2)nn1-c1ncccc1Cl [I-1-328] | 3.63
47 | CNC(=O)c1cc(Cl)cc(C)c1NC(=O)c1cc(Cn2cnc(C(F)(F)C(F)(F)F)n2)nn1-c1ncccc1Cl [I-1-329] | 2.57
48 | Cc1cc(Cl)cc(C(N)=O)c1NC(=O)c1cc(Cn2cnc(C(F)(F)C(F)(F)F)n2)nn1-c1ncccc1Cl [I-1-330] | 2.39
49 | Cc1cc(Cl)cc(C(=O)NC2CC2)c1NC(=O)c1cc(Cn2cnc(C(F)(F)C(F)(F)F)n2)nn1-c1ncccc1Cl [I-1-331] | 2.78
50 | Cc1cc(Cl)cc(C(=O)NCC#N)c1NC(=O)c1cc(Cn2cnc(C(F)(F)C(F)(F)F)n2)nn1-c1ncccc1Cl [I-1-332] | 2.59
51 | CNC(=O)c1cc(C#N)cc(C)c1NC(=O)c1cc(Cn2cnc(C(F)(F)C(F)(F)F)n2)nn1-c1ncccc1Cl [I-1-333] | 2.25
52 | Cc1cc(Cl)cc(C(=O)NC(C)C)c1NC(=O)c1cc(Cn2cnc(C(F)(F)C(F)(F)F)n2)nn1-c1ncccc1Cl [I-1-334] | 2.66
53 | O=C(NC1CC1)c1cc(Cl)cc(Cl)c1NC(=O)c1cc(Cn2cnc(C(F)(F)C(F)(F)F)n2)nn1-c1ncccc1Cl [I-1-335] | 2.69
54 | NC(=O)c1cc(Cl)cc(Cl)c1NC(=O)c1cc(Cn2cnc(C(F)(F)C(F)(F)F)n2)nn1-c1ncccc1Cl [I-1-336] | 2.32
55 | N#CCNC(=O)c1cc(Cl)cc(Cl)c1NC(=O)c1cc(Cn2cnc(C(F)(F)C(F)(F)F)n2)nn1-c1ncccc1Cl [I-1-337] | 2.56
56 | Cc1cc(C#N)cc(C(=O)NC2CC2)c1NC(=O)c1cc(Cn2cnc(C(F)(F)C(F)(F)F)n2)nn1-c1ncccc1Cl [I-1-338] | 2.45
57 | Cc1cc(C#N)cc(C(N)=O)c1NC(=O)c1cc(Cn2cnc(C(F)(F)C(F)(F)F)n2)nn1-c1ncccc1Cl [I-1-339] | 2.11
58 | CC(C)NC(=O)c1cc(Cl)cc(Cl)c1NC(=O)c1cc(Cn2cnc(C(F)(F)C(F)(F)F)n2)nn1-c1ncccc1Cl [I-1-340] | 2.55
59 | Cc1cc(Cl)cc(C(=O)NC(C)C)c1NC(=O)c1cc(Cn2cnc(C(F)(F)C(F)(F)F)n2)nn1-c1ncccc1Cl [I-1-341] | 2.63
60 | CNC(=O)c1cc(Cl)cc(Cl)c1NC(=O)c1cc(Cn2cnc(C(F)(F)C(F)(F)F)n2)nn1-c1ncccc1Cl [I-1-342] | 2.15
61 | Cc1cc(Cl)cc(C(N)=O)c1NC(=O)c1cc(Cn2cnc(C(F)(F)C(F)(F)F)n2)nn1-c1ncccc1Cl [I-1-343] | 2.02
62 | O=C(NC1CC1)c1cc(Cl)cc(Cl)c1NC(=O)c1cc(Cn2cnc(C(F)(F)C(F)(F)F)n2)nn1-c1ncccc1Cl [I-1-344] | 2.37
63 | Cc1cc(Cl)cc(C(=O)NC2CC2)c1NC(=O)c1cc(Cn2cnc(C(F)(F)C(F)(F)F)n2)nn1-c1ncccc1Cl [I-1-345] | 2.42
64 | NC(=O)c1cc(Cl)cc(Cl)c1NC(=O)c1cc(Cn2cnc(C(F)(F)C(F)(F)F)n2)nn1-c1ncccc1Cl [I-1-346] | 2.01

Source: patent publication US8101550B2, “Anthranilic acid diamide derivative with hetero-aromatic and hetero-cyclic substituents” (Bayer Cropscience AG, priority 2006, dated 2012)
